Blank lines part the entries; values can stand above or below the molecule they belong to. Active and inactive are the calls of the source.
Tests used:
[1] = target: Peroxisome proliferator-activated receptor gamma/Nuclear receptor coactivator 1 (Homo sapiens, UniProt P37231); experiment: (§1) TR-FRET dose response biochemical High Throughput Screening assay for agonists of the steroid receptor coactivator 1 (SRC-1) recruitment by the peroxisome proliferator-activated receptor gamma (PPAR gamma): non-selective agonists. [Related pubchem assays (depositor defined):AID1300, AID1808, AID504735, AID631]; format: protein assay
[2] = target: Peroxisome proliferator-activated receptor gamma/Nuclear receptor coactivator 3 (Homo sapiens, UniProt P37231); experiment: as §1, with “3 (SRC-3)” for “1 (SRC-1)”, “assays: 1301 (Confirmation screen.), 1048 (Primary screen.)]” for “assays (depositor defined):AID1300, AID1808, AID504735, AID631]”; format: functional
[3] = C. albicans growth with fluconazole, confirmation, fluorescence, retest (AID 2467); format: functional, cell-based
[4] = NIH-3T3 fibroblast cytotoxicity, dose response, cytotoxicity control, cell-based, fluorescence, Alamar Blue, secondary assay (AID 2327); format: functional;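 also: NIH-3T3 mouse fibroblasts cultured with fluconazole at 8 µg/mL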
[5] = target: Peroxisome proliferator-activated receptor gamma/Nuclear receptor coactivator 2 (Homo sapiens, UniProt P37231); experiment: TR-FRET dose response biochemical High Throughput Screening assay for agonists of the steroid receptor coactivator 2 (SRC-2) recruitment by the peroxisome proliferator-activated receptor gamma (PPAR gamma): non-selective agonists. [Related pubchem assays: 1297, 1032 ]; format: functional
[6] = target: DNA dC->dU-editing enzyme APOBEC-3A (Homo sapiens, UniProt P31941); experiment: Dose Response confirmation of small molecule APOBEC3A DNA Deaminase Inhibitors via a fluorescence-based single-stranded DNA deaminase assay. [Related pubchem assays (depositor defined):AID493011, AID493024]; format: functional
[7] = target: DNA dC->dU-editing enzyme APOBEC-3G (Homo sapiens, UniProt Q9HC16); format: functional;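 also: Dose-response counterscreen measuring inhibition of APOBEC3G DNA deaminase activity, run while confirming APOBEC3A inhibitors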
[8] = target: T1, Type-1 angiotensin II receptor (Homo sapiens, UniProt P30556); experiment: AT1 receptor agonists, dose response, selectivity assay for APJ receptor agonist project, cell-based, uHTS hits (AID 488865); format: functional;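 also: beta-arrestin recruitment to AT1 measured by enzyme fragment complementation luminescence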
T1 sequence (P30556 whole entry): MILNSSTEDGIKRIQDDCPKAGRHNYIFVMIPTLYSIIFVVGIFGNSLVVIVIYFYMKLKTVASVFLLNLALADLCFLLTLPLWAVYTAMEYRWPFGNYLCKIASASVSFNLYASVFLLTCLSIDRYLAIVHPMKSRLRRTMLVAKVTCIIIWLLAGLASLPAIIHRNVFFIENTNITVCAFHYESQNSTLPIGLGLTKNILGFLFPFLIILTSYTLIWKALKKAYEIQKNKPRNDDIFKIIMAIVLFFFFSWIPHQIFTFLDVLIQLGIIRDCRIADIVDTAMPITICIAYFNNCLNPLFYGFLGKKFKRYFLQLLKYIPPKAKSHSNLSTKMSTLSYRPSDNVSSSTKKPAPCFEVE

[9] = target: T2, Ubiquitin-conjugating enzyme E2 N (Homo sapiens, UniProt P61088); format: functional
T2 sequence (P61088 whole entry): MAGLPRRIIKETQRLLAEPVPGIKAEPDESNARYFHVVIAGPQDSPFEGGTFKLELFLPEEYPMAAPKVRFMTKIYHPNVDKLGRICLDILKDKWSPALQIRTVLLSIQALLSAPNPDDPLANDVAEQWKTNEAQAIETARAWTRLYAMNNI

[10] = target: T2, Ubiquitin-conjugating enzyme E2 N; format: functional; remark: listed apart in the source
Bcl-2-related protein A1 = target: T3, Bcl-2-related protein A1 (Mus musculus, UniProt Q07440); format: functional;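 also: confirmatory dose–response counterscreen on Bfl-1, used to check hits from a UBC13 polyubiquitin inhibitor campaign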
T3 sequence (Q07440 whole entry): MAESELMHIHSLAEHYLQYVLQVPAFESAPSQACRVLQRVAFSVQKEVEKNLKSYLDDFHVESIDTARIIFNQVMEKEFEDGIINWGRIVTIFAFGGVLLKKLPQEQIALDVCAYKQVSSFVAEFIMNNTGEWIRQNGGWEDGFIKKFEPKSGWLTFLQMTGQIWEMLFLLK

[11] = target: T4, Short transient receptor potential channel 4 (Mus musculus, UniProt Q9QUQ5); experiment: mouse TRPC4 channel activators, dose response, cell-based, HEK293 TRPC4/mu-opioid, Fluo-4 calcium (AID 434937); format: functional
T4 sequence (Q9QUQ5 whole entry): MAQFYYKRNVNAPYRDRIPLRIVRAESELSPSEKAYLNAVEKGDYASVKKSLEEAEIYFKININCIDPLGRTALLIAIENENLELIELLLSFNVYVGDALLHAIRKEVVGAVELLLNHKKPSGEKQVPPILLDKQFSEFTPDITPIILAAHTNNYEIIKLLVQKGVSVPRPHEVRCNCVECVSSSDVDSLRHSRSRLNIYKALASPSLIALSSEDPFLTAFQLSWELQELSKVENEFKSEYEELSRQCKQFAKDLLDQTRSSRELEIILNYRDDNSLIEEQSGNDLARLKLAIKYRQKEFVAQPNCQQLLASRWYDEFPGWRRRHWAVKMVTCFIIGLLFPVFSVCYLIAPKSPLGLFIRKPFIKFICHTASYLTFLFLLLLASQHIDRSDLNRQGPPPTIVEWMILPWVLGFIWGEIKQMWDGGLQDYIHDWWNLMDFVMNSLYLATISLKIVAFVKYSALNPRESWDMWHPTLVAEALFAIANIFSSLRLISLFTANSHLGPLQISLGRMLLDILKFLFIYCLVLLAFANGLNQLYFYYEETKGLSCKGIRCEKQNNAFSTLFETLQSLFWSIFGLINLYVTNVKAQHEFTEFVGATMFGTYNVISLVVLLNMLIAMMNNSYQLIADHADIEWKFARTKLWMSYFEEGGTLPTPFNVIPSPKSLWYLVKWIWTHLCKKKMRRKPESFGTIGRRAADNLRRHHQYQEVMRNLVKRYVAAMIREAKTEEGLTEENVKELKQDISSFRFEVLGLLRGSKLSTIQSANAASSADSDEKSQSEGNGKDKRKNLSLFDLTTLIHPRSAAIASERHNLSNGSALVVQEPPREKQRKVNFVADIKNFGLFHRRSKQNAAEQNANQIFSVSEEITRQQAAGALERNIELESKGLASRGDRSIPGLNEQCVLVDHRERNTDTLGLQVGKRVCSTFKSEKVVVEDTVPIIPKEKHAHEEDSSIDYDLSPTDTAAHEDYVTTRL

[12] = target: T5, Carboxy-terminal domain RNA polymerase II polypeptide A small phosphatase 1 (Homo sapiens, UniProt Q9GZU7); experiment: inhibitors of CTDSP1, concentration-response testing, biochemical assay, absorbance-based, actives from ultra-high-throughput screening (AID 540297); format: functional
T5 sequence (Q9GZU7 whole entry): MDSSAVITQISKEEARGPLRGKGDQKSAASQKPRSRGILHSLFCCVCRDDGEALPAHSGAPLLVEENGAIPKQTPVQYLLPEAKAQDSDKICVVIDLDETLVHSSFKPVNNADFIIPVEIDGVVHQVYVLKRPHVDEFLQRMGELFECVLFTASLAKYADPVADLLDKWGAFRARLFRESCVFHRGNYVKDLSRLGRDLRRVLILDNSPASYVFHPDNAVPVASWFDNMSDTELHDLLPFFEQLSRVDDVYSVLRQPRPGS

Chain of DNA dC->dU-editing enzyme APOBEC-3A (P31941 whole entry): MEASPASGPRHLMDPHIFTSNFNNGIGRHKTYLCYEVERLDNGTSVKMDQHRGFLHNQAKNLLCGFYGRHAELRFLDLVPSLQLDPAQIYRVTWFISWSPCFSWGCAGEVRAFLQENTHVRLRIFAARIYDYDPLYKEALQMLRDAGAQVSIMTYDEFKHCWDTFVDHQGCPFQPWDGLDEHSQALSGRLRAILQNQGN
Chain of DNA dC->dU-editing enzyme APOBEC-3G (Q9HC16 whole entry, the tested form may be a part): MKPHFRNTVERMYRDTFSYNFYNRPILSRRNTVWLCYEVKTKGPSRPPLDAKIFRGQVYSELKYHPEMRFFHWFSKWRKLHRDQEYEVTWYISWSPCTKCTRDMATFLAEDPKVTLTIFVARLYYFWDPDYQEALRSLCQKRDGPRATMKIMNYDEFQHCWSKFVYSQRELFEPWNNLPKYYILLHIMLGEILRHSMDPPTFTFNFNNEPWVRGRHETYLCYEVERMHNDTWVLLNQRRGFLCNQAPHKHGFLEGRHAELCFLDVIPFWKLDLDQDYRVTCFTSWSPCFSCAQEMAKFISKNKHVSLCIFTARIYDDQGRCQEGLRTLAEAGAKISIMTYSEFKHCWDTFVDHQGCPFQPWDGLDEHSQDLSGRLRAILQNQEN
Chain of Peroxisome proliferator-activated receptor gamma/Nuclear receptor coactivator 2 (P37231 whole entry): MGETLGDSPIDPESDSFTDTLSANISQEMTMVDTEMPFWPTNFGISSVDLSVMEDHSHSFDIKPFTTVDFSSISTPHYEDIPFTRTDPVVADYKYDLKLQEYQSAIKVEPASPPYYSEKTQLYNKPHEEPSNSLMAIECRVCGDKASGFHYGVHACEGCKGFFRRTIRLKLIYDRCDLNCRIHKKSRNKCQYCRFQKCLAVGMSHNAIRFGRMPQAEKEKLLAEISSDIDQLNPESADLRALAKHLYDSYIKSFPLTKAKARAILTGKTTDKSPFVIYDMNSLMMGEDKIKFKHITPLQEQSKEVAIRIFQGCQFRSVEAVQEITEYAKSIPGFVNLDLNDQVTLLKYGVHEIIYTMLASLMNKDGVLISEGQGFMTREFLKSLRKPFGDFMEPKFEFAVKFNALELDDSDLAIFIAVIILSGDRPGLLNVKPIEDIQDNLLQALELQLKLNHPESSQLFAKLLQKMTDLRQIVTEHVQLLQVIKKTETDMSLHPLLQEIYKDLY
Chain of Peroxisome proliferator-activated receptor gamma/Nuclear receptor coactivator 2 (Q15596 whole entry, further chain): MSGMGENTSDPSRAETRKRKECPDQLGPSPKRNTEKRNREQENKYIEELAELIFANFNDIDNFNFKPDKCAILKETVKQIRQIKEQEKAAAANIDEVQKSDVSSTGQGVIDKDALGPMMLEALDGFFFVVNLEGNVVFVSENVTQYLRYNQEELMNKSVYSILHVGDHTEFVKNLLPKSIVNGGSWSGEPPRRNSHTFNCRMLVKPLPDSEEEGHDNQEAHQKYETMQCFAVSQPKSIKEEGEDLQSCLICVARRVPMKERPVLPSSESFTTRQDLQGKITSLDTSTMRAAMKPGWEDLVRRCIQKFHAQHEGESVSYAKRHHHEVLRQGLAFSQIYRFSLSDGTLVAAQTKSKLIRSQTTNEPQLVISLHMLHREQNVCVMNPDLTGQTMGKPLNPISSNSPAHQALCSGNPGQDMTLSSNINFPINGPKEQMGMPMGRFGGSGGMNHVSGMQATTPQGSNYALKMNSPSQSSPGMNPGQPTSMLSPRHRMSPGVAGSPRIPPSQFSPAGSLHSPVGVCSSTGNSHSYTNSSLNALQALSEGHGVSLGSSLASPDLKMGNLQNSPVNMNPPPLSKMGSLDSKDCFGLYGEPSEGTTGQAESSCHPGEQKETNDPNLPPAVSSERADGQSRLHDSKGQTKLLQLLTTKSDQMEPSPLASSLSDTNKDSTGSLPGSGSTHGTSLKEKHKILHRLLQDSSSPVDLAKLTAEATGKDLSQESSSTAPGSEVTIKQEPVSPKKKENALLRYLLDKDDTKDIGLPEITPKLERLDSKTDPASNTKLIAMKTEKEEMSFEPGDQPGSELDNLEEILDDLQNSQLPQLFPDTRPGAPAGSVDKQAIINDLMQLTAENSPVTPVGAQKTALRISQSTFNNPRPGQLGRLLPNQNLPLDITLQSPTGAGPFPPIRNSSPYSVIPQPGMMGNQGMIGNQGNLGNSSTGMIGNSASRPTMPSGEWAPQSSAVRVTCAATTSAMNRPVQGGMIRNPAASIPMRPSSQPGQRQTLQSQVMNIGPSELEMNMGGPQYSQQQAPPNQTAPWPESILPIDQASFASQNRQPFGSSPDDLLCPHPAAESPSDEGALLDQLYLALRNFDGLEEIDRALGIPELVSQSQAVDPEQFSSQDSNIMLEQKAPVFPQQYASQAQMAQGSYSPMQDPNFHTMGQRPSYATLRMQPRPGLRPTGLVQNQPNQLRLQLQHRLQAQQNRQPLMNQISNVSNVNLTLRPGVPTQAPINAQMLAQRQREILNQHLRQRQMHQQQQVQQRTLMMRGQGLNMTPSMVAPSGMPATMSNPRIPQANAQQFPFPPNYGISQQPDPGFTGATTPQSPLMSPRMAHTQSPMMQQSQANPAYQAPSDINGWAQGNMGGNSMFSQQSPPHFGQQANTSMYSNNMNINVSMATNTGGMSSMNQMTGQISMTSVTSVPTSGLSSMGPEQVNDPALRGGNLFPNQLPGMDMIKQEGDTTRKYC
Chain of Peroxisome proliferator-activated receptor gamma/Nuclear receptor coactivator 3 (P37231 whole entry): as the sequence (P37231 whole entry) above
Chain of Peroxisome proliferator-activated receptor gamma/Nuclear receptor coactivator 3 (Q9Y6Q9 whole entry, further chain): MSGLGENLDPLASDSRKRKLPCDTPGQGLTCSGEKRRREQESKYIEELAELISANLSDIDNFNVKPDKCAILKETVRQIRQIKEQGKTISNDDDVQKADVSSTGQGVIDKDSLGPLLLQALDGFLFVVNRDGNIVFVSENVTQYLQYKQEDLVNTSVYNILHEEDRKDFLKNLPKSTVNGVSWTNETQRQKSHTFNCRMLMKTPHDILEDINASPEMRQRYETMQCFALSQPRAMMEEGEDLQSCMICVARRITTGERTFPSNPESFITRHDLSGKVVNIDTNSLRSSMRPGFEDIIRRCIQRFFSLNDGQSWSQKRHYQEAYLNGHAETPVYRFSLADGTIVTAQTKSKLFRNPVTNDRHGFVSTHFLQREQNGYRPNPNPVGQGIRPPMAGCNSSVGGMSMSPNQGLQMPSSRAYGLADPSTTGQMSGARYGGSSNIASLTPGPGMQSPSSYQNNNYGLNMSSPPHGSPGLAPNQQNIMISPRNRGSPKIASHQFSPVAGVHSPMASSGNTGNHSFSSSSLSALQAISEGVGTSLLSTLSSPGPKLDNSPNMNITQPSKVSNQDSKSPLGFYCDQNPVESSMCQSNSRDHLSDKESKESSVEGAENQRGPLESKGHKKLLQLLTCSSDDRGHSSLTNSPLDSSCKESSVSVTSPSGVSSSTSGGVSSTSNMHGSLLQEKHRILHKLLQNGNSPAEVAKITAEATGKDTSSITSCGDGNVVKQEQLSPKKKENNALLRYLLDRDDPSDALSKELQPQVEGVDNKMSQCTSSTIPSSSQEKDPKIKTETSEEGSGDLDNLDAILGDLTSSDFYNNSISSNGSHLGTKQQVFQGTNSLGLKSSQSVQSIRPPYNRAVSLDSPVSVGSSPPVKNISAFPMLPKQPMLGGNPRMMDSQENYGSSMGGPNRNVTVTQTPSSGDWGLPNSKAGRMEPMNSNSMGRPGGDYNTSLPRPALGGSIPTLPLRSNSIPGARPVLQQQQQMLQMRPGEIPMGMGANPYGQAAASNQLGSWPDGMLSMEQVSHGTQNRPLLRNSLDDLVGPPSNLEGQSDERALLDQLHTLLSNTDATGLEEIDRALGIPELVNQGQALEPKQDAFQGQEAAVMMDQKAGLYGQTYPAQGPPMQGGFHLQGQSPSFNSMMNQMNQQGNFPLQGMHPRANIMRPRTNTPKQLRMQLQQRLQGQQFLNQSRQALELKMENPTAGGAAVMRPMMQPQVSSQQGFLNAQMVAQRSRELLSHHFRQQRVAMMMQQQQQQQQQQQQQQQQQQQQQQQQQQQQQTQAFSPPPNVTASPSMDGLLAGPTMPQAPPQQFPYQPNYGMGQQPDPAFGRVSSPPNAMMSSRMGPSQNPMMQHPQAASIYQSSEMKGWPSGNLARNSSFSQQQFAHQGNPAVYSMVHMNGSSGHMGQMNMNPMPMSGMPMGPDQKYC

Structure (SMILES): CCn1c(=S)[nH]c2scc(-c3cccs3)c2c1=O
EC50 [1]: 8.82 µM (active) | EC50 [2]: > 79.4 µM (not active) | EC50 [3]: 1.23 µM (active) | EC50 [4]: > 160 µM (inactive) | EC50 [5]: 11.1 µM (not active)

Structure (SMILES): O=C(NCc1ccccc1CN1CCCCC1)c1ccccc1N1CCCC1=O
IC50 [6]: 4.48 µM (active) | IC50 [7]: 4.58 µM (active)

Structure (SMILES): Cc1ccc(NC(=O)C2CCCN2C(=O)c2cccs2)c(C)c1 (stereo not drawn)
IC50 [6]: 3.76 µM (active) | IC50 [7]: 6.6 µM (active)

Structure (SMILES): COc1cc(/C=C/c2cccc[n+]2C)ccc1OCC(=O)Nc1cccc(Cl)c1
IC50 [6]: 2.83 µM (active) | IC50 [12]: 18.9 µM (active) | IC50 [7]: 2.95 µM (active)

The remaining lines, values ahead:

EC50 [8]: > 100 µM (inactive)
Structure (SMILES): Cc1cccc2sc(N(CCCN(C)C)C(=O)c3ccc(S(=O)(=O)N4CCc5ccccc5C4)cc3)nc12

EC50 [8]: > 100 µM (inactive)
Structure (SMILES): CCOc1cc2[nH]c(=S)n(CCN3CCCCC3CC)c(=O)c2cc1OCC (stereo not drawn)

IC50 [9]: 10.5 µM (active) | IC50 [10]: 9.23 µM (active) | IC50 (Bcl-2-related protein A1): > 20 µM (inactive)
Structure (SMILES): CCOc1ccc(NS(=O)(=O)c2cc(C(=O)NCCCN3CCOCC3)ccc2C)cc1

EC50 [11]: 4.73 µM (active)
Structure (SMILES): O=C(CC1C(=O)NCCN1Cc1cccc(Oc2ccccc2)c1)NCCc1ccccn1 (stereo not drawn)
